In paper PMC10551889 (Bioorganic & medicinal chemistry, 2022):
“Also recorded” adds a separate entry of the source.

The compounds below were run on Vero cells (assay: not given).

Row | Compound | cytotoxicity at higher concentrations
1 | CC(C)(C)Nc1nccnc1C(=O)[O-].[Na+] [compound 56, Sodium 3-(tert-butylamino)pyrazine-2-carboxylate] | ~ 50%

These compounds were tested against Mtb PanD (Mycobacterium tuberculosis, UniProt P9WIL3) (assay: biochemical).
Type: binding

Mtb PanD, sequence (P9WIL3 25-139): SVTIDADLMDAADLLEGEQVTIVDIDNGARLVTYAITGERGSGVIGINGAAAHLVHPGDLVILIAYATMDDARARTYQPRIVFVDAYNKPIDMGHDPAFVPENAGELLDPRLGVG
Mtb PanD, sequence (P9WIL3 1-24): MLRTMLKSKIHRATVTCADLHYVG

Row | Compound | Kd [µM] | PanD binding (in words)
2 | Nc1nccnc1C(=O)O [compound 23] | 37 to 47 | –
3 | Nc1cnc(C(=O)O)cn1 [compound 24] | 37 to 47 | –
4 | CCN(CC)c1nccnc1C(=O)[O-].[Na+] [compound 58, Sodium 3-(diethylamino)pyrazine-2-carboxylate] | – | no binding; also recorded: did not bind at all; also recorded: did not bind to PanD

Each compound was assayed on M. bovis BCG mutant POA2 (PanD Leu132Arg) (assay: not given).
Type: cell-based, Mycobacterium bovis BCG

Row | Compound | shift in growth inhibition potency against PanD mutant vs wildtype (in words)
5 | Nc1nccnc1C(=O)O [compound 23] | minimal shift
6 | Nc1cnc(C(=O)O)cn1 [compound 24] | moderate shift
7 | CCCNc1nccnc1C(=O)[O-].[Na+] [compound 54, Sodium 3-(propylamino)pyrazine-2-carboxylate] | moderate shift
8 | CC(C)Nc1nccnc1C(=O)[O-].[Na+] [compound 55, Sodium 3-(2-propylamino)pyrazine-2-carboxylate] | moderate shift
9 | O=C([O-])c1nccnc1Nc1ccccc1.[Na+] [compound 59, Sodium 3-(anilino)pyrazine-2-carboxylate] | moderate shift

Each compound was assayed on M. bovis BCG Pasteur ATCC 35734 (assay: not given).
Type: cell-based, Mycobacterium bovis BCG

Row | Compound | antimycobacterial activity (in words) | fold less potent than POA [fold] | MIC50 (MIC, concentration that inhibits fifty percent of growth) [µM]
10 | c1cnc(-c2nnn[nH]2)cn1 [compound 12, 2-(1H-Tetrazol-5-yl)pyrazine] | inactive or weakly active | – | –
11 | NC(=S)c1cnccn1 [compound 13] | inactive or weakly active | – | –
12 | NS(=O)(=O)c1cnccn1 [compound 14] | inactive or weakly active | – | –
13 | CC(=O)NS(=O)(=O)c1cnccn1 [compound 15, N-(Pyrazin-2-ylsulfonyl)acetamide] | inactive or weakly active | – | –
14 | CC(=O)c1cnccn1 [compound 16] | eliminated activity | – | –
15 | Nc1cncc(C(=O)O)n1 [compound 25, 6-amino-POA] | loss of activity | – | –
16 | Cc1ccccc1-c1nccnc1C(=O)[O-].[Na+] [compound 36, Sodium 3-(o-tolyl)pyrazine-2-carboxylate] | completed obliterated activity | – | –
17 | O=C([O-])c1cnc(-c2ccccc2)cn1.[Na+] [compound 39, Sodium 5-(phenyl)pyrazine-2-carboxylate] | eliminated activity | – | –
18 | O=C([O-])c1cncc(-c2ccccc2)n1.[Na+] [compound 40, Sodium 6-phenylpyrazine-2-carboxylate] | – | ~2 | –
19 | CCNc1cnc(C(=O)[O-])cn1.[Na+] [compound 42, Sodium 5-(ethylamino)pyrazine-2-carboxylate] | Loss of potency | – | –
20 | O=C([O-])c1cnc(NC2CCC2)cn1.[Na+] [compound 48, Sodium 5-(cyclobutylamino)pyrazine-2-carboxylate] | Loss of potency | – | –
21 | CCN(CC)c1nccnc1C(=O)[O-].[Na+] [compound 58, Sodium 3-(diethylamino)pyrazine-2-carboxylate] | loss of activity | – | –
22 | O=C([O-])c1nccnc1N1CCCC1.[Na+] [compound 62, Sodium 3-(pyrrolidine-1-yl)pyrazine-2-carboxylate] | abolished activity | – | –
23 | O=C([O-])c1nccnc1N1CCCCC1.[Na+] [compound 63, Sodium 3-(piperidin-1-yl)pyrazine-2-carboxylate] | abolished activity | – | –
24 | O=C([O-])c1nccnc1N1CCOCC1.[Na+] [compound 64, Sodium 3-(morpholino)pyrazine-2-carboxylate] | abolished activity | – | –
25 | O=C([O-])c1nccnc1N1CCSCC1.[Na+] [compound 65, Sodium 3-(thiomorpholino)pyrazine-2-carboxylate] | abolished activity | – | –
26 | O=C([O-])c1nccnc1N1CCC2(CC1)CC2.[Na+] [compound 66, Sodium 3-(6-azaspiro[2,5]octan-6-yl)pyrazine-2-carboxylate] | abolished activity | – | –
27 | CCCNc1cnc(C(=O)[O-])cn1.[Na+] [compound 70, Sodium 5-(n-propylamino)pyrazine-2-carboxylate] | Loss of potency | – | –
28 | CC(C)Nc1cnc(C(=O)[O-])cn1.[Na+] [compound 71, Sodium 5-(2-propylamino)pyrazine-2-carboxylate] | Loss of potency | – | –
29 | CCCCNc1cnc(C(=O)[O-])cn1.[Na+] [compound 72, Sodium 5-(n-butylamino)pyrazine-2-carboxylate] | – | – | 400
30 | CCN(CC)c1cnc(C(=O)[O-])cn1.[Na+] [compound 73, Sodium 5-(diethylamino)pyrazine-2-carboxylate] | equipotent to the parent POA | – | –
31 | O=C([O-])c1cnc(NC2CCCC2)cn1.[Na+] [compound 76, Sodium 5-(cyclopentylamino)pyrazine-2-carboxylate] | Loss of potency | – | –
32 | O=C([O-])c1cncc(NC(=O)C2CCCCC2)n1.[Na+] [compound 80, Sodium 6-(cyclohexanecarboxamido)pyrazine-2-carboxylate] | obliterated activity | – | –
